Test results published in PMC6718736, “Validation of in vitro methods for human cytochrome P450 enzyme induction: Outcome of a multi-laboratory study” (Toxicology in Vitro, 2019).
Entries after “also recorded” stand apart in the source; their conditions may differ. Where two headings read alike, the source gives them in different places.

How the values were obtained:
[1] = Solubility by visual inspection (DMSO stock solution and assay medium); assay type: physicochemical; conditions: assay medium
Method: The SOPs relied on visual inspection for solubility observation. […] The absence of precipitation in the medium was checked pre- and post-incubation (24 hours) by centrifugation of the sample and observation of any precipitation (pellet residue).

[2] = Solubility by nephelometry (EURL ECVAM); assay type: physicochemical; conditions: ECVAM nephelometry, ^2 = solubility limit
Excerpt: In addition to the visual inspection performed by the validation laboratories as described in the SOP, EURL ECVAM introduced nephelometry for systematic solubility determination of the 13 validation set chemicals. Nephelometry uses a laser beam and the principle of Tyndall effect light scatter to detect turbidity due to insolubility. The nephelometer method used formazin as reference item (1, 5, 10 and 20 nephelometric turbidity units (NTU)) to calculate the relative turbidity (RTU) of the validation set of chemicals. To the naked eye, 20 NTU is perceptible, while the nephelometer was sensitive to 5 NTU, with 1 NTU equivalent to background (solvent/medium blank).

[3] = cited from earlier work
CYP1A2 [4] = assay: CYP1A2 enzyme induction assay in cryopreserved HepaRG cells (phenacetin probe, LC/MS); assay type: in vitro ADME, human; conditions: for Assigned classification CYP1A2: HepaRG; for Assigned classification CYP1A2: key: 1=Positive=inducer; 0=Negative=non-inducer
CYP2B6 [5] = assay: CYP2B6 enzyme induction assay in cryopreserved HepaRG cells (bupropion probe, LC/MS); assay type: in vitro ADME, human; conditions: for Prediction in vivo inducer: Cmax/F2 >0.5 criterion; for Assigned classification CYP2B6: HepaRG; for Assigned classification CYP2B6: key: 1=Positive=inducer; 0=Negative=non-inducer
CYP1A2 [6] = assay: CYP1A2 enzyme induction assay in cryopreserved primary human hepatocytes (PHH); assay type: in vitro ADME; conditions: for Prediction in vivo inducer: Cmax/F2 >0.5 criterion; for Assigned classification CYP1A2: PHH;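 for Assigned classification CYP1A2: code 1 means positive inducer and 0 means non-inducer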
CYP2B6 [7] = assay: CYP2B6 enzyme induction assay in cryopreserved primary human hepatocytes (PHH); assay type: in vitro ADME; conditions: for Assigned classification CYP2B6: PHH;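 for Assigned classification CYP2B6: code 1 means positive inducer and 0 means non-inducer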
CYP1A2 [8] = conditions: cited from earlier work
CYP2B6 [9] = conditions: cited from earlier work
[10] = human in vivo plasma concentration, normal dose
[11] = human in vivo, normal dose (Table 10)
[12] = human in vivo, CYP named without remark = induced, ref references in the cell, Washington University database, Hoffmann et al. (2014), Pelkonen et al. (2008), Hukkanen et al. (2012)

SMILES: CC1(C)S[C@@H]2[C@H](NC(=O)Cc3ccccc3)C(=O)N2[C@H]1C(=O)O [Penicillin G sodium]
- HepaRG medium stability ([1]; Lab 1, visual observation): 40 µg/mL
- HepaRG medium stability ([1]; Lab 2, visual observation): 40 µg/mL
- HepaRG medium stability ([1]; Lab 3, visual observation): 40 µg/mL
- PHH medium stability ([1]; Lab 4, visual observation): 40 µg/mL
- PHH medium stability ([1]; Lab 5, visual observation): 40 µg/mL
- PHH medium stability ([1]; Lab 6, visual observation): 20 µg/mL
- HepaRG medium stability ([2]; HepaRG medium): 40 µg/mL
- PHH medium stability ([2]; PHH medium): 40 µg/mL
- Cmax [3, 10]: 36 µM
- Cmax [3, 11]: 36 µM

SMILES: CO[C@H]1/C=C/O[C@@]2(C)Oc3c(C)c(O)c4c(O)c(c(/C=N/N5CCN(C)CC5)c(O)c4c3C2=O)NC(=O)/C(C)=C\C=C\[C@H](C)[C@H](O)[C@@H](C)[C@@H](O)[C@@H](C)[C@H](OC(C)=O)[C@@H]1C [Rifampicin]
- Prediction in vivo inducer (CYP1A2 [4]; CYP1A2, HepaRG cells, Cmax/F2 >0.5 criterion): Yes
- F2 (CYP1A2 [4]; CYP1A2, HepaRG cells, in vitro concentration producing 2-fold induction): 0.20 to 0.60 µM
- Induction in vitro (CYP1A2 [4]; CYP1A2, HepaRG cells, positive in one batch in each of the three laboratories): Yes
- Assigned classification CYP1A2 (CYP1A2 [4]; Lab 1, batch 20): 1
- Assigned classification CYP1A2 (CYP1A2 [4]; Lab 1, batch 35): 1
- Assigned classification CYP1A2 (CYP1A2 [4]; Lab 1, batch 36): 1
- Assigned classification CYP1A2 (CYP1A2 [4]; Lab 2, batch 20): 1
- Assigned classification CYP1A2 (CYP1A2 [4]; Lab 2, batch 35): 1
- Assigned classification CYP1A2 (CYP1A2 [4]; Lab 2, batch 36): 1
- Assigned classification CYP1A2 (CYP1A2 [4]; Lab 3, batch 20): 1
- Assigned classification CYP1A2 (CYP1A2 [4]; Lab 3, batch 35): 1
- Assigned classification CYP1A2 (CYP1A2 [4]; Lab 3, batch 36): 1
- Prediction in vivo inducer (CYP2B6 [5]; CYP2B6, HepaRG cells): Yes
- Prediction in vivo inducer (CYP2B6 [5]; CYP2B6, HepaRG cells, listed as rifampicin): correctly classified
- F2 (CYP2B6 [5]; CYP2B6, HepaRG cells, in vitro concentration producing 2-fold induction): 0.6 to 1.80 µM
- Induction in vitro (CYP2B6 [5]; CYP2B6, HepaRG cells, positive in one batch in each of the three laboratories): Yes
- Assigned classification CYP2B6 (CYP2B6 [5]; Lab 1, batch 20): 0
- Assigned classification CYP2B6 (CYP2B6 [5]; Lab 1, batch 35): 1
- Assigned classification CYP2B6 (CYP2B6 [5]; Lab 1, batch 36): 0
- Assigned classification CYP2B6 (CYP2B6 [5]; Lab 2, batch 20): 1
- Assigned classification CYP2B6 (CYP2B6 [5]; Lab 2, batch 35): 0
- Assigned classification CYP2B6 (CYP2B6 [5]; Lab 2, batch 36): 1
- Assigned classification CYP2B6 (CYP2B6 [5]; Lab 3, batch 20): 0
- Assigned classification CYP2B6 (CYP2B6 [5]; Lab 3, batch 35): 0
- Assigned classification CYP2B6 (CYP2B6 [5]; Lab 3, batch 36): 1
- Prediction in vivo inducer (CYP1A2 [6]; CYP1A2, PHH): No
- Prediction in vivo inducer (CYP1A2 [6]; CYP1A2, PHH, listed as rifampicin): non-inducer; also recorded: missed the in vivo prediction
- Induction in vitro (CYP1A2 [6]; CYP1A2, PHH, positive in one donor in each of the three laboratories): No
- Assigned classification CYP1A2 (CYP1A2 [6]; Lab 1, batch 0 6 A): 0
- Assigned classification CYP1A2 (CYP1A2 [6]; Lab 1, batch 4 0 8): 0
- Assigned classification CYP1A2 (CYP1A2 [6]; Lab 1, batch 8 0 8): 0
- Assigned classification CYP1A2 (CYP1A2 [6]; Lab 2, batch 0 6 A): 0
- Assigned classification CYP1A2 (CYP1A2 [6]; Lab 2, batch 4 0 8): 0
- Assigned classification CYP1A2 (CYP1A2 [6]; Lab 2, batch 8 0 8): 1
- Assigned classification CYP1A2 (CYP1A2 [6]; Lab 3, batch 0 6 A): 1
- Assigned classification CYP1A2 (CYP1A2 [6]; Lab 3, batch 4 0 8): 0
- Assigned classification CYP1A2 (CYP1A2 [6]; Lab 3, batch 8 0 8): 0
- F2 (CYP2B6 [7]; CYP2B6, PHH): 0.2 µM
- Induction in vitro (CYP2B6 [7]; CYP2B6, PHH): Yes
- Prediction in vivo inducer (CYP2B6 [7]; CYP2B6, PHH): Yes
- Prediction in vivo inducer (CYP2B6 [7]; CYP2B6, PHH, Cmax/F2 >0.5 criterion): positive
- Assigned classification CYP2B6 (CYP2B6 [7]; Lab 1, batch 0 6 A): 1
- Assigned classification CYP2B6 (CYP2B6 [7]; Lab 1, batch 4 0 8): 1
- Assigned classification CYP2B6 (CYP2B6 [7]; Lab 1, batch 8 0 8): 1
- Assigned classification CYP2B6 (CYP2B6 [7]; Lab 2, batch 0 6 A): 1
- Assigned classification CYP2B6 (CYP2B6 [7]; Lab 2, batch 4 0 8): 0
- Assigned classification CYP2B6 (CYP2B6 [7]; Lab 2, batch 8 0 8): 1
- Assigned classification CYP2B6 (CYP2B6 [7]; Lab 3, batch 0 6 A): 1
- Assigned classification CYP2B6 (CYP2B6 [7]; Lab 3, batch 4 0 8): 1
- Assigned classification CYP2B6 (CYP2B6 [7]; Lab 3, batch 8 0 8): 1
- Induction in vivo (CYP1A2 [8]; CYP1A2, human, ref Table 1): Yes
- CYP induction in vivo literature reference: CYP1A2 (CYP1A2 [8]; [12]): CYP1A2
- Cmax [3, 10]: 8 to 12 µM
- Cmax [3, 11]: 8 to 12 µM
- Induction in vivo (CYP2B6 [9]; CYP2B6, human in vivo reference classification): Yes
- Induction in vivo (CYP2B6 [9]; CYP2B6, human, ref Table 1): Yes
- CYP induction in vivo literature reference: CYP2B6 (CYP2B6 [9]; [12]): CYP2B6
